Like-named read-outs stand apart in the source and are kept apart here.
Experiments:
[1] = system: Male Sprague Dawley rats; assay: stress-related hormones after plethysmography testing; format: in vivo, rat; details: approximately 5 hours post-dosing, 200, 500, 750 mg/kg p.o., whole-body and head-out testing
[2] = estimated plasma maximum concentrations in dogs; format: in vivo, dog
[3] = molecular target: transient receptor potential cation channel subfamily V member 1 (TRPV1) (Homo sapiens, UniProt Q8NER1); assay: in vitro functional assays for agonist and antagonist effects; format: biochemical
Sequence of transient receptor potential cation channel subfamily V member 1 (TRPV1) (Q8NER1 whole entry, species assumed): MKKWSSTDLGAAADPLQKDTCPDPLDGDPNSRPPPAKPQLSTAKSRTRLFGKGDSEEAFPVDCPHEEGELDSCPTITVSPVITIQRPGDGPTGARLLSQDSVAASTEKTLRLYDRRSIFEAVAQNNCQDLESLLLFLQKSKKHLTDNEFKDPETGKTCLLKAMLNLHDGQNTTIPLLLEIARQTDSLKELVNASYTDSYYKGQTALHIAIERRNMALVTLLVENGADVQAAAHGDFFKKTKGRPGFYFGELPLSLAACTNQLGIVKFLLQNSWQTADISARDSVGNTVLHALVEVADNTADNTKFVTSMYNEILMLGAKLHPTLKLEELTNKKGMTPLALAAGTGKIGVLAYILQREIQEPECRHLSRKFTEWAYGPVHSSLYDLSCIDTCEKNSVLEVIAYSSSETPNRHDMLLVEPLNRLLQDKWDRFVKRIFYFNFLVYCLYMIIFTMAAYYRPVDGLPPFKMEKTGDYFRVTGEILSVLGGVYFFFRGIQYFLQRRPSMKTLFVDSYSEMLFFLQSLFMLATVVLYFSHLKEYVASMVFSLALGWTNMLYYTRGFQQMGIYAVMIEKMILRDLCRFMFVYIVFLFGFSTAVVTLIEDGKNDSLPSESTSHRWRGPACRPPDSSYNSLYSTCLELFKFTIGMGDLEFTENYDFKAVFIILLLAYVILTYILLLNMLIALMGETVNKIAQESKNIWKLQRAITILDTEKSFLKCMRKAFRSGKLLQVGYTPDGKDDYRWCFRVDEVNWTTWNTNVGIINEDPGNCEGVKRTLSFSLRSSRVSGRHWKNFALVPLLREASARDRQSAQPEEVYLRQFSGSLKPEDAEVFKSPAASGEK

[4] = molecular target: T1, adenosine A3 receptor (Homo sapiens, UniProt P0DMS8); assay: in vitro binding assay
T1 sequence (P0DMS8 1-318): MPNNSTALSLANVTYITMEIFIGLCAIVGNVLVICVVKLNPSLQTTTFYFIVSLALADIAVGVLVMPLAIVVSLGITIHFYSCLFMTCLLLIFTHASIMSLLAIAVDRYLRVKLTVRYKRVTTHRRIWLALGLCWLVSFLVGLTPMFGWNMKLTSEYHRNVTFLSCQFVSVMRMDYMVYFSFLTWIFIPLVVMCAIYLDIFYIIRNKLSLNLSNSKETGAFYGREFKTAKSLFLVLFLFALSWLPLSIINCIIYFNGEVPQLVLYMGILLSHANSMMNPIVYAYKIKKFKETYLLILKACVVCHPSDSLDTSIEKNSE

[5] = system: rats; assay: original GLP respiratory study using head-out plethysmography; format: in vivo, rat; details: original head-out study, 200, 500, 750 mg/kg p.o.
[6] = system: Male Sprague Dawley rats; assay: respiratory function, whole-body plethysmography; format: in vivo, rat; details: for increase in tidal volume: throughout 5 hours post-dosing, not significant
[7] = system: PDE6; assay: in vitro enzyme assay; format: biochemical; details: 100 μM (36 μg/mL) DSM421
[8] = system: rats; assay: Irwin test; format: in vivo, rat; details: oral doses of 200, 500 and 750 mg/kg
[9] = molecular target: PDE5 (Homo sapiens, UniProt O76074); assay: in vitro enzyme assay; format: biochemical; details: 100 μM (36 μg/mL) DSM421
[10] = pharmacokinetics in rats; format: in vivo; details: rat; for plasma Cmax (mean ± S.E.M.) / Tmax (mean ± S.E.M.): n=4
[11] = system: Male Sprague Dawley rats; details: rat, in vivo, po
[12] = system: dogs; assay: cardiovascular and respiratory assessment in telemetry-instrumented dogs; format: in vivo, dog
[13] = whole-body, 200 and 500 mg/kg p.o., peak at 5 hours post-dosing

## Cc1cc(Nc2ccc(C(F)(F)F)nc2)n2nc(C(C)(F)F)nc2n1 [DSM421, 2-(1,1-difluoroethyl)-5-methyl-N-[6-trifluromethyl-3-pyridyl]-[1,2,4]triazolo[1,5-a]pyrimidin-7-amine]
[1]
  ACTH plasma level, effect of dose: no overall effect for dose
  aldosterone serum level, effect of dose: no overall effect for dose
  corticosterone serum level, effect of dose: overall effect for dose
[2]; 30 mg/kg p.o.
  estimated maximum concentration (Cmax) in plasma: 29 µg/mL
[2]; 100 mg/kg p.o.
  estimated maximum concentration (Cmax) in plasma: 69 µg/mL
[3]; 100 μM DSM421, agonist mode
  agonist effect (percent of control agonist response): 26%
[3]; 100 μM DSM421, antagonist mode
  antagonist effect: no effect
[4]; 10 μM DSM421
  inhibition of control specific binding: 40%
[4]; 100 μM (36 μg/mL) DSM421
  inhibition of control specific binding: 91%
[5]
  time after administration of death or euthanasia in extremis: 3 to 5 h
[6]; whole-body chambers, 200, 500, 750 mg/kg p.o., 5-hour post-dosing period
  clinical signs: no DSM421-related clinical signs
[6]; whole-body, 200 mg/kg p.o.
  increase in tidal volume: approximately 5%
[6]; whole-body, 500 mg/kg p.o.
  increase in tidal volume: ~6%
[6]; [13]
  mean minute volume increase: approximately 28%
  mean respiratory rate increase compared to vehicle control: 22–23%
[7]
  inhibition: 72%
[8]
  Irwin test effects: no effects were observed
[9]
  inhibition: 59%
[10]; 200 mg/kg p.o.
  plasma Cmax (mean ± S.E.M.): 49 µg/mL
[10]; 500 mg/kg p.o.
  Tmax (mean ± S.E.M.): 18 ± 3.5 h
  plasma Cmax (mean ± S.E.M.): 73 µg/mL
[10]; 750 mg/kg p.o. (high dose)
  plasma level by 6 days after dosing relative to LLOQ (0.005 μg/mL): only slightly greater than that
[10]; 750 mg/kg p.o.
  Tmax (mean ± S.E.M.): 27 ± 7.5 h
  plasma Cmax (mean ± S.E.M.): 97 µg/mL
[11]; 200 mg/kg
  changes in respiratory rate: no changes in respiratory rate
  clinical signs: no DSM421-related clinical signs
  mean minute volume increase above the control group: approximately 17%
[11]; 500 mg/kg
  animals with hypoactivity, salivation, dyspnea and/or increased body temperature: 2 of the eight animals tested
  increase in respiratory rate above controls: 5–17%
  mean minute volume increase above the control group: ~48%
[11]; 750 mg/kg
  increase in respiratory rate above controls (peak): 41–47%
  increase in tidal volume above controls (peak): 46–57%
  mean minute volume increase above controls (peak): 141%
[12]; 100 mg/kg p.o.
  clinical observation: emesis
  increase in minute volume: 4- to 5 fold
  increase in respiratory rate: 4- to 5 fold
[12]; 30 and 100 mg/kg p.o.
  cardiovascular function (heart rate, blood pressure, and ECG): no effects
  tidal volume: no effects
[12]; p.o.
  no-observed-effect level (NOEL): 30 mg/kg

Reference: publication PMC6803055 (Journal of pharmacological and toxicological methods, 2019)
